Source: patent US5358950A, “Triazolopyrimidine derivatives which are angiotensin II receptor antagonists” (Laboratoires UPSA, priority 1991, dated 1994)

Tested on: adrenal angiotensin II receptors
Experiment: Displacement of radiolabelled ligand [^125 I]-SIAII specifically bound to rat adrenal angiotensin II receptors
Type: binding
Details: rat adrenal homogenate, 60 min at 25° C.
Protocol: The affinity of the products of the examples for angiotensin II receptors is assessed by a technique of displacement of a radiolabelled ligand specifically bound to the adrenal angiotensin II receptors in the rat.
An aliquot of a rat adrenal homogenate is incubated in the presence of a single concentration of [^125 I]-SIAII(Sar^1 Tyr^4, Ile^8 -angiotensin II) which is an angiotensin II receptor antagonist, and two concentrations of competitive agents ([…]) for 60 min at 25° C.
The reaction is stopped by adding buffer, followed by rapid filtration through glass-paper filters. The non-specific binding is determined in the presence of angiotensin II.
The results are expressed, for the concentrations tested, as a percentage displacement of the radiolabelled ligand specifically bound to the adrenal angiotensin II receptors.

With `CCCc1nc(C)n2c(=O)[nH]nc2c1Cc1ccc(-c2ccccc2-c2nnn[nH]2)cc1` [Example 19, 7-n-Propyl-5-methyl-8-{[2'-(5-tetrazolyl)-4-biphenylyl]methyl}-1,2,4-triazolo[4,3-c]pyrimidin-3(2H)-one] the “% displacement of the labelled ligand” value (1E-5M, 10 µM) was 66% and the “% displacement of the labelled ligand” value (1E-7M, 0.1 µM) was 48%.

With `CCCc1nc(C)n2[nH]c(=O)nc2c1Cc1ccc(-c2ccccc2-c2nnn[nH]2)cc1` [Example 20, 7-n-Propyl-5-methyl-8-{[2'-(5-tetrazolyl)-4-biphenylyl]methyl}-1,2,4-triazolo[1,5-c]pyrimidin-2(3H)-one] the “% displacement of the labelled ligand” value (1E-5M, 10 µM) was 60% and the “% displacement of the labelled ligand” value (1E-7M, 0.1 µM) was 45%.

For `CCCc1nc(C)n2c(=O)n(CCO)nc2c1Cc1ccc(-c2ccccc2-c2nnn[nH]2)cc1` [Example 25, 2-[7-n-Propyl-5-methyl-3-oxo-8-{[2'-(5-tetrazolyl)-4-biphenylyl]methyl}-2,3-dihydro-1,2,4-triazolo[4,3-c]pyrimidin-2-yl]ethanol], the “% displacement of the labelled ligand” value (1E-5M, 10 µM) was 68% and the “% displacement of the labelled ligand” value (1E-7M, 0.1 µM) was 54%.

`CCCCc1nc(C)n2c(=O)[nH]nc2c1Cc1ccc(-c2ccccc2-c2nnn[nH]2)cc1` [Example 36, 7-n-Butyl-5-methyl-8-{[2'-(5-tetrazolyl)-4-biphenylyl]methyl}-1,2,4-triazolo[4,3-c]pyrimidin-3(2H)-one] was tested, and the “% displacement of the labelled ligand” value (1E-5M, 10 µM) was 65% and the “% displacement of the labelled ligand” value (1E-7M, 0.1 µM) was 43%.

In the case of `CCCc1nc(C)n2nc(S)nc2c1Cc1ccc(-c2ccccc2-c2nnn[nH]2)cc1` [Example 42, 7-n-propyl-5-methyl-2-mercapto-8-{[2'-(5-tetrazolyl)-4-biphenylyl]methyl}-1,2,4-triazolo[1,5-c]pyrimidine], the “% displacement of the labelled ligand” value (1E-5M, 10 µM) is reported as 75% and the “% displacement of the labelled ligand” value (1E-7M, 0.1 µM) is reported as 46%.

With `CCCc1nc(C)n2c(S)nnc2c1Cc1ccc(-c2ccccc2-c2nnn[nH]2)cc1` [Example 68, 7-n-Propyl-5-methyl-3-mercapto-8-{[2'-(5-tetrazolyl)-4-biphenylyl]methyl}-1,2,4-triazolo[4,3-c]pyrimidine] the “% displacement of the labelled ligand” value (1E-5M, 10 µM) was 67% and the “% displacement of the labelled ligand” value (1E-7M, 0.1 µM) was 33%.

In the case of `CCCc1nc(C)n2ncnc2c1Cc1ccc(-c2ccccc2-c2nnn[nH]2)cc1` [Example 71, 7-n-propyl-5-methyl-8-{[2'-(5-tetrazolyl)-4-biphenylyl]methyl}-1,2,4-triazolo[1,5-c]pyrimidine], the “% displacement of the labelled ligand” value (1E-5M, 10 µM) is reported as 73% and the “% displacement of the labelled ligand” value (1E-7M, 0.1 µM) is reported as 60%.

In the case of `CCCc1nc(C)n2nc(C)nc2c1Cc1ccc(-c2ccccc2-c2nnn[nH]2)cc1` [Example 74, 7-n-Propyl-2,5-dimethyl-8-{[2'-(5-tetrazolyl)-4-biphenylyl}methyl]-1,2,4-triazolo[1,5-c]pyrimidine], the “% displacement of the labelled ligand” value (1E-5M, 10 µM) is reported as 69% and the “% displacement of the labelled ligand” value (1E-7M, 0.1 µM) is reported as 54%.

For `CCCc1nc(C)n2nc(CC)nc2c1Cc1ccc(-c2ccccc2-c2nnn[nH]2)cc1` [Example 78, 7-n-Propyl-5-methyl-8-{[2 '(5-tetrazolyl)-4-biphenylyl]methyl}-2-ethyl-1,2,4-triazolo[1,5-c]pyrimidine], the “% displacement of the labelled ligand” value (1E-5M, 10 µM) was 67% and the “% displacement of the labelled ligand” value (1E-7M, 0.1 µM) was 52%.

For `CCCc1nc(C)n2nc(NC)nc2c1Cc1ccc(-c2ccccc2-c2nnn[nH]2)cc1` [Example 80, 7-n-Propyl-5-methyl-2-methylamino-8-{[2'-(5-tetrazolyl)-4-biphenylyl]methyl}-1,2,4-triazolo [1,5-c]pyrimidine], the “% displacement of the labelled ligand” value (1E-5M, 10 µM) was 74% and the “% displacement of the labelled ligand” value (1E-7M, 0.1 µM) was 59%.

With `CCc1nc(C)n2nc(C)nc2c1Cc1ccc(-c2ccccc2-c2nn[nH]n2)cc1` [Example 90, 7-Ethyl-2 , 5-dimethyl-8-{[2 '-(5-tetrazolyl)-4-biphenylyl]methyl}-i, 2,4-triazolo[1,5-c]pyrimidine] the “% displacement of the labelled ligand” value (1E-5M, 10 µM) was 63% and the “% displacement of the labelled ligand” value (1E-7M, 0.1 µM) was 48%.

In the case of `CCc1nc(C)n2[nH]c(=O)nc2c1Cc1ccc(-c2ccccc2-c2nnn[nH]2)cc1` [Example 97, 7-Ethyl-5-methyl-8-{[2'(5-tetrazolyl)-4-biphenylyl]methyl}-1,2,4-triazolo[1,5-c]pyrimidin-2(3H)-one], the “% displacement of the labelled ligand” value (1E-5M, 10 µM) is reported as 60% and the “% displacement of the labelled ligand” value (1E-7M, 0.1 µM) is reported as 38%.

For `CCCc1nc(C)n2nc(N)nc2c1Cc1ccc(-c2ccccc2-c2nnn[nH]2)cc1` [Example 107, 7-n-Propyl-5-methyl-2-amino-8-{[2'-(5-tetrazolyl)-4-biphenylyl]methyl}-1,2,4-triazolo[1,5-c]pyrimidine], the “% displacement of the labelled ligand” value (1E-5M, 10 µM) was 71% and the “% displacement of the labelled ligand” value (1E-7M, 0.1 µM) was 58%.

In the case of `CCCc1nc(C)n2nc(C(=O)OCC)nc2c1Cc1ccc(-c2ccccc2-c2nnn[nH]2)cc1` [Example 109, Ethyl 7-n-propyl-5-methyl-8-{[2'-(5-tetrazolyl)-4-biphenylyl]methyl}-1,2,4-triazolo[1,5-c]pyrimidine-2-carboxylate], the “% displacement of the labelled ligand” value (1E-5M, 10 µM) is reported as 67% and the “% displacement of the labelled ligand” value (1E-7M, 0.1 µM) is reported as 46%.

With `CCCCc1nc(C)n2[nH]c(=O)nc2c1Cc1ccc(-c2ccccc2-c2nnn[nH]2)cc1` [Example 112, 7-n-Butyl-5-methyl-8-{[2'(5-tetrazolyl)-4-biphenylyl]methyl}-1,2,4-triazolo[1,5-c]pyrimidin-2(3H)-one] the “% displacement of the labelled ligand” value (1E-5M, 10 µM) was 60% and the “% displacement of the labelled ligand” value (1E-7M, 0.1 µM) was 41%.

With `CCCc1nc(CC)n2[nH]c(=O)nc2c1Cc1ccc(-c2ccccc2-c2nnn[nH]2)cc1` [Example 138, 7-n-Propyl-5-ethyl-8-{[2'-(5-tetrazolyl)-4-biphenylyl]methyl}-1,2,4-triazolo[1,5-c]pyrimidin-2(3H)-one] the “% displacement of the labelled ligand” value (1E-5M, 10 µM) was 61% and the “% displacement of the labelled ligand” value (1E-7M, 0.1 µM) was 17%.

With `CCCc1nc(C)n2nc(CC(=O)OCC)nc2c1Cc1ccc(-c2ccccc2-c2nnn[nH]2)cc1` [Example 146, Ethyl [7-n-propyl-5-methyl-8-{[2'-(5-tetrazolyl)-4-biphenylyl]methyl}-1,2,4-triazolo[1,5-c]pyrimidin-2-yl]acetate] the “% displacement of the labelled ligand” value (1E-5M, 10 µM) was 74% and the “% displacement of the labelled ligand” value (1E-7M, 0.1 µM) was 56%.

In the case of `CCCc1nc(C)n2nc(COC)nc2c1Cc1ccc(-c2ccccc2-c2nnn[nH]2)cc1` [Example 152, 7-n-Propyl-5-methyl-2-methoxymethyl-8-{[2'-(5-tetrazolyl)-4-biphenylyl]methyl}-1,2,4-triazolo[1,5-c]pyrimidine], the “% displacement of the labelled ligand” value (1E-5M, 10 µM) is reported as 69% and the “% displacement of the labelled ligand” value (1E-7M, 0.1 µM) is reported as 57%.
